Measured values as given in ChEMBL document CHEMBL5365506, “Novel Haloacethydrazides as AEP Inhibitors for Treating Alzheimer's Disease” (ACS Med Chem Lett, 2023).

Target: T1, Legumain (Homo sapiens, UniProt Q99538)
T1 sequence (Q99538 whole entry): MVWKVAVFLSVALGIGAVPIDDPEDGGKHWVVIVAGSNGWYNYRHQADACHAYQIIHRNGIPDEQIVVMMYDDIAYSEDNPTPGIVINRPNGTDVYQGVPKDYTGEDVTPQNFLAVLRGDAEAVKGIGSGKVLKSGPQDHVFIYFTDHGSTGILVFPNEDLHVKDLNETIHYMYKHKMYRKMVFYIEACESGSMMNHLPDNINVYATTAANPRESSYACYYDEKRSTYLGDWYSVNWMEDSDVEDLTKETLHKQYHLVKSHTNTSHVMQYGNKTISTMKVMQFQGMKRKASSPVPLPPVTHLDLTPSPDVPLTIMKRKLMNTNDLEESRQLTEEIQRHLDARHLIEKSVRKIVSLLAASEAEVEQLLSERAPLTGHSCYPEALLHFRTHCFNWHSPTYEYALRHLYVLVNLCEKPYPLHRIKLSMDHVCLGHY
Assay: Inhibition of human 8His-tagged AEP (V18 to Y433 residues) using Z-Ala-Ala-Asn-Rhl 10-(D-Pro) as substrate incubated for 30 mins followed by substrate addition by fluorescence based microplate reader analysis

`C#CCOc1ccc(C2(C(=O)N3CCC[C@H]3C(=O)NN(CC(N)=O)C(=O)CF)CC2)cc1` gave an IC50 of 1 nM.

Compound `COc1ccc(-c2ccc(S(=O)(=O)N3CCC[C@H]3C(=O)NN(CC(N)=O)C(=O)CF)cc2)cc1` has an IC50 of 1 nM.

For `NC(=O)CN(NC(=O)[C@@H]1CCCN1C(=O)C1(c2ccc(Cl)cc2)CCC1)C(=O)CF`, the IC50 was 1 nM.

`C#Cc1ccc(C2(C(=O)N3CCC[C@H]3C(=O)NN(CC(N)=O)C(=O)CF)CC2)cc1` gave an IC50 of 1 nM.
